Consider one compound from publication PMC4982440, “PDK1-SGK1 Signaling Sustains AKT-Independent mTORC1 Activation and Confers Resistance to PI3Kα Inhibition” (Cancer Cell, 2016).

SMILES strings stand for the structures.

Common to all, as to format: biochemical
In test [1] the target is T1, SGK2 (Homo sapiens, UniProt Q9HBY8).
T1 sequence (Q9HBY8 1-367): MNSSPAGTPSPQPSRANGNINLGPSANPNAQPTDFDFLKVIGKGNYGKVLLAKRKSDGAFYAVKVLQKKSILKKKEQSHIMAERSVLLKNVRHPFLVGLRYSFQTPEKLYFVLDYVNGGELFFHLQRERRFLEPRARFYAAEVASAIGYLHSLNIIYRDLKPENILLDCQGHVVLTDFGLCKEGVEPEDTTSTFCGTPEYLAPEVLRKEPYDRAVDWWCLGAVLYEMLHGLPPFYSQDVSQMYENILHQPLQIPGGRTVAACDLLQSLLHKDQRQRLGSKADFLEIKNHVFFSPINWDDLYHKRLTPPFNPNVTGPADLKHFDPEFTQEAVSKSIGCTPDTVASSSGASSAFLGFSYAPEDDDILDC
In words: in vitro kinase assay.

In test [2] the target is T2, S6K (Homo sapiens, UniProt P23443).
T2 construct: gene RPS6KB1; recombinant S6K
T2 sequence (P23443 whole entry): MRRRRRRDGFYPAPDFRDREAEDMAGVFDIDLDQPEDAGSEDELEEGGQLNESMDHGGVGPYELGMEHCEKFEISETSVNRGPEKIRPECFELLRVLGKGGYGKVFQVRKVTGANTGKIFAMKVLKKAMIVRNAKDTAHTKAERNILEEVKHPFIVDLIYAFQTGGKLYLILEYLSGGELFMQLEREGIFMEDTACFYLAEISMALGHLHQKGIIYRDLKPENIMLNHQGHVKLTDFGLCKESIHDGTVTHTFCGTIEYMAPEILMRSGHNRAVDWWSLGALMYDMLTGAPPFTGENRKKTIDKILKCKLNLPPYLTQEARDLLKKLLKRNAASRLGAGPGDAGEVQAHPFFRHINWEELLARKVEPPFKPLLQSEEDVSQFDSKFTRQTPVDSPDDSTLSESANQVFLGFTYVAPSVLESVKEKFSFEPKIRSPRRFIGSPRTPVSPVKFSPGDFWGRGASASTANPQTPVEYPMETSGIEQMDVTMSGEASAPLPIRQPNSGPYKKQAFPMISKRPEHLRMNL
The experiment in a line: recombinant in vitro kinase assay.

Test [3] has as its target T3, SGK3 (Homo sapiens, UniProt Q96BR1).
T3 sequence (Q96BR1 1-496): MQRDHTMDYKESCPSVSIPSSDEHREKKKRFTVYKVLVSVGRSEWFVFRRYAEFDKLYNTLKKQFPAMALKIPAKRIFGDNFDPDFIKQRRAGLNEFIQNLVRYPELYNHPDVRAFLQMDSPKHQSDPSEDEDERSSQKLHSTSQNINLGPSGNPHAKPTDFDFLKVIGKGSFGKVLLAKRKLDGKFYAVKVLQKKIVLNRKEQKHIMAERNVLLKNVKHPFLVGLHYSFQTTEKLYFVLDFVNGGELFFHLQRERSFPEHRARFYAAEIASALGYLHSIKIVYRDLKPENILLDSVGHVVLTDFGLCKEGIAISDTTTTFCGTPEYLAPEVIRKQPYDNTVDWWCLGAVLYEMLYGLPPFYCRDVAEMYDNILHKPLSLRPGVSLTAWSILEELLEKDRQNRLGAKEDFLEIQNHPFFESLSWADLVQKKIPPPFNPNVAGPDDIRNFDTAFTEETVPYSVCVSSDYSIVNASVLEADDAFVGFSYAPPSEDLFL
The experiment in a line: in vitro kinase assay.

On to `Nc1n[nH]c2nc(-c3ccc(NS(=O)(=O)c4cccc(Cl)c4Cl)cc3)cnc12` [SGK1-inh], for which the half-inhibitory concentration (IC50) (in general, the concentration at which inhibition is half-maximal) in test [1] is 2.8 nM; in test [2], 33 nM; in test [3], 590 nM.
